Target: T1, IGF-1R Ba/F3 (Homo sapiens, UniProt P08069)
T1 construct: fused on or other part: TEL- (or BCR-) IGF-1R in Ba/F3: the kinase part holds the site
Assay: Ba/F3 Cell Viability Inhibition Assay (IGF-1R Ba/F3)
Assay type: cell-based, murine
Conditions: Tel-TK transformed Ba/F3 cells, 48 hours, Britelite luminescence
How it was run: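 IL-3-independent murine Ba/F3 cells transformed with a TEL/BCR-fused IGF-1R kinase were seeded at 3750 cells/well and exposed to serially diluted compound for 48 h at 37 °C. Viability was read by Britelite luminescence. IC50 is the concentration giving 50% of DMSO-control viability, from a logistic fit.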

T1 sequence (P08069 999-1274 limits assumed): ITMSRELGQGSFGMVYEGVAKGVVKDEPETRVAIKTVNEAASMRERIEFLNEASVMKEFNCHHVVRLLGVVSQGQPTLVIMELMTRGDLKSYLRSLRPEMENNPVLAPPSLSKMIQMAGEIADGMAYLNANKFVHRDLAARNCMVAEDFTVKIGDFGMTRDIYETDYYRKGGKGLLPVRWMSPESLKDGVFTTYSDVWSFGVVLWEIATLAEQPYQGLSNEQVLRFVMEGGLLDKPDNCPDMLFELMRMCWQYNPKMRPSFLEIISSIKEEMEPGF

| SMILES | IC50 |
| --- | --- |
| Cc1cc(Nc2nc(Nc3cc(C)c(C4CCN(Cc5c(C)noc5C)CC4)cc3F)ncc2Cl)n[nH]1 [Compound 19, 5-Chloro-N2-(4-(1-((3,5-dimethylisoxazol-4-yl)methyl)piperidin-4-yl)-2-fluoro-5-methylphenyl)-N4-(5-methyl-1H-pyrazol-3-yl)pyrimidine-2,4-diamine] | 56 nM |
| CCNC1(C(=O)N2CCC(c3cc(F)c(Nc4ncc(Cl)c(Nc5cc(C)[nH]n5)n4)cc3C)CC2)CC1 [Compound 169, (4-(4-(5-chloro-4-(5-methyl-1H-pyrazol-3-ylamino)pyrimidin-2-ylamino)-5-fluoro-2-methylphenyl)piperidin-1-yl)(1-(ethylamino)cyclopropyl)methanone] | 4 nM |
| COC(=O)c1cc(Nc2ncc(Cl)c(Nc3cc(C)[nH]n3)n2)c(C)cc1C1CCN(C)CC1 [Compound 287, methyl 5-(5-chloro-4-(5-methyl-1H-pyrazol-3-ylamino)pyrimidin-2-ylamino)-4-methyl-2-(1-methylpiperidin-4-yl)benzoate] | 27 nM |
| Cc1cc(Nc2nc(Nc3cc(C)c(C4CCN(CCC(F)(F)F)CC4)cc3F)ncc2Cl)n[nH]1 [Compound 24, 5-chloro-N^2-(2-fluoro-5-methyl-4-(1-(3,3,3-trifluoropropyl)piperidin-4-yl)phenyl)-N^4-(5-methyl-1H-pyrazol-3-yl)pyrimidine-2,4-diamine] | 85 nM |
| Cc1cc(Nc2nc(Nc3cc(C)c(C4CCNCC4)cc3C)ncc2C(F)(F)F)n[nH]1 [Compound 257, N^2-(2,5-dimethyl-4-(piperidin-4-yl)phenyl)-N^4-(5-methyl-1H-pyrazol-3-yl)-5-(trifluoromethyl)pyrimidine-2,4-diamine] | 64 nM |
| Cc1cc(Nc2ncc(Cl)c(N[C@H]3CCCCNC3=O)n2)c(F)cc1C1CCN(C)CC1 (single isomer, unassigned) [Compound 10] | 869 nM |
| Cc1cc(Nc2nc(Nc3cc(C)c(C4CCCCN4)cc3C)ncc2Cl)n[nH]1 (centres unmarked) [Compound 14, 5-chloro-N2-(2,5-dimethyl-4-(piperidin-2-yl)phenyl)-N4-(5-methyl-1H-pyrazol-3-yl)pyrimidine-2,4-diamine] | 16 nM |
| Cc1cc(Nc2nc(Nc3cc(C)c(C4CCN([C@H]5CCN(S(C)(=O)=O)C5)CC4)cc3F)ncc2Cl)n[nH]1 [Compound 313, (S)-5-chloro-N2-(2-fluoro-5-methyl-4-(1-(1-(methylsulfonyl)pyrrolidin-3-yl)piperidin-4-yl)phenyl)-N4-(5-methyl-1H-pyrazol-3-yl)pyrimidine-2,4-diamine] | 30 nM |
| CCc1cc(Nc2nc(Nc3cc(C)c(C4CCN(C)CC4)cc3F)ncc2Cl)n[nH]1 [Compound 271, 5-chloro-N4-(5-ethyl-1H-pyrazol-3-yl)-N2-(2-fluoro-5-methyl-4-(1-methylpiperidin-4-yl)phenyl)pyrimidine-2,4-diamine] | 13 nM |
| Cc1cc(Nc2nc(Nc3cc(C)c(C4CCN(C(=O)n5cnnn5)CC4)cc3F)ncc2Cl)n[nH]1 [Compound 140, (4-(4-(5-chloro-4-(5-methyl-1H-pyrazol-3-ylamino)pyrimidin-2-ylamino)-5-fluoro-2-methylphenyl)piperidin-1-yl)(1H-tetrazol-1-yl)methanone] | 139 nM |
| Cc1cc(Nc2ncc(Cl)c(N[C@@H]3CCCCNC3=O)n2)c(F)cc1C1CCN(C)CC1 (single isomer, unassigned) [Compound 11] | 65 nM |
| Cc1cc(Nc2nc(Nc3cc(C)c(C4CCN(S(C)(=O)=O)CC4)cc3C)ncc2Cl)n[nH]1 [Compound 63, 5-chloro-N2-(2,5-dimethyl-4-(1-(methylsulfonyl)piperidin-4-yl)phenyl)-N4-(5-methyl-1H-pyrazol-3-yl)pyrimidine-2,4-diamine] | 2 nM |
| Cc1cc(Nc2nc(Nc3cc(C)c(C4CCN(C(=O)CN5CCC5)CC4)cc3F)ncc2Cl)n[nH]1 [Compound 98, 2-(azetidin-1-yl)-1-(4-(4-(5-chloro-4-(5-methyl-1H-pyrazol-3-ylamino)pyrimidin-2-ylamino)-5-fluoro-2-methylphenyl)piperidin-1-yl)ethanone] | 64 nM |
| Cc1cc(Nc2nc(Nc3cc(C)c(C4CCN([C@@H](C)C(N)=O)CC4)cc3F)ncc2Cl)n[nH]1 [Compound 163] | 56 nM |
| Cc1cc(Nc2nc(Nc3cc(C)c(C4CCN(CC(N)=O)C(C)C4)cc3F)ncc2Cl)n[nH]1 (centres unmarked) [Compound 274, 2-(4-(4-(5-chloro-4-(5-methyl-1H-pyrazol-3-ylamino)pyrimidin-2-ylamino)-5-fluoro-2-methylphenyl)-2-methylpiperidin-1-yl)acetamide] | 6 nM |
| Cc1cc(Nc2nc(Nc3cc(C)c(C4CCN(Cc5noc(C)n5)CC4)cc3C)ncc2Cl)n[nH]1 [Compound 304, 5-chloro-N2-(2,5-dimethyl-4-(1-((5-methyl-1,2,4-oxadiazol-3-yl)methyl)piperidin-4-yl)phenyl)-N4-(5-methyl-1H-pyrazol-3-yl)pyrimidine-2,4-diamine] | 5 nM |
| Cc1cc(Nc2nc(Nc3cc(C)c(C4CCN(C5CCS(=O)(=O)C5)CC4)cc3F)ncc2Cl)n[nH]1 (centres unmarked) [Compound 145, 5-chloro-N^2-(2-fluoro-5-methyl-4-(1-(tetrahydro-1,1-dioxido-3-thienyl)piperidin-4-yl)phenyl)-N^4-(5-methyl-1H-pyrazol-3-yl)pyrimidine-2,4-diamine] | 18 nM |
